Experimental data as given in patent US12459939B2 (SHANGHAI RINGENE BIOPHARMA CO., LTD., priority 2019, dated 2025).

Columns and labels:
Type in all cases: in vitro ADME
[1] = Metabolic stability in mouse liver microsomes; details: liver microsomes 0.5 mg/mL, NADPH, 1 μM compound, read-out: Mouse microsomal T1/2
Procedure: (§1) (1) Metabolic stability test: 150 μL of liver microsomes (final concentration was 0.5 mg/mL) were subjected to metabolic stability incubation, the system containing NADPH (final concentration was 1 mM), 1 μM of the test compound and the positive control midazolam or the negative control atenolol, the reaction was terminated with acetonitrile containing tinidazole at 0 min, 5 min, 10 min, and 30 min, respectively, then the mixture was vortexed for 10 min, and centrifuged at 15000 rmp for 10 min, 50 μL of the supernatant was injected into 96 well. The metabolic stability of the compound was calculated by measuring the relative reduction of the original drug. (See Table 3 for specific values)

[2] = Metabolic stability in rat liver microsomes; details: liver microsomes 0.5 mg/mL, NADPH, 1 μM compound, read-out: Rat microsomal T1/2
Procedure: as §1

[3] = Metabolic stability in dog liver microsomes; details: liver microsomes 0.5 mg/mL, NADPH, 1 μM compound, read-out: Dog microsomal T1/2
Procedure: as §1

Question: For Cc1cc(F)cc(C)c1Oc1ccc(C(C)(C)O)cc1-c1cn(C)c(=O)c2cc(C(=O)NC3CC(F)(F)C3)[nH]c12 [Embodiment 18, N-(3,3-difluorocyclobutyl)-7-(2-(4-fluoro-2,6-dimethylphenoxy)-5-(2-hydroxyprop-2-yl)phenyl)-5-methyl-4-oxo-4,5-dihydro-1H-pyrrolo[3,2-c] pyridine-2-amide], which half-life at 1 μM [1] is on record?
Answer: The half-life at 1 μM was 1.27 h.

Question: What about the half-life at 1 μM [2] of the same compound?
Answer: Its half-life at 1 μM is 1.38 h.

Question: What about the half-life at 1 μM [3] of the same compound?
Answer: The half-life at 1 μM was 6.67 h.
